{"source": "paper PMC8100298", "about": "“Histone deacetylase inhibitor resminostat in combination with sorafenib counteracts platelet-mediated pro-tumoral effects in hepatocellular carcinoma” (Scientific Reports, 2021)", "assay_in_all_cases": "Efficacy screening assay", "type_in_all_cases": "cell-based", "key": {"[1]": {"test_system": "CALU6", "details": "CALU6, lung", "protocol": "(§1) The experiment was performed by Oncolead GmbH & Co. KG (Karlsfeld , Germany), based on a standardized screening procedure . Cell lines were purchased directly from the ATCC, NCI and DSMZ cell line c ollections. Cells used for the study had undergone less than 20 passages. To ensure the absence of potential contamination and wrong assignment, all cell lines were tested using a whole genome assay (Agilent, USA). All cell lines were grown as recommended by the suppliers and with addition of 100 U/mL penicillin G and 100 µg/mL; streptomycin. Cell growth and treatments were performed in Nunclon D 96 -well plates (NUNC, Germany). The optimal seeding density for each cell line was determined to ensure exponential growth for the duration of the experiment. All cells growing without anti-cancer agents were sub-conﬂuent by the end of the treatment, as determined by visual inspection.\n(§2) After an initial 24 h pre-growth period, the compounds were added. The vehicle concentration […]\n(§3) was 0.1% DMSO. After incubation at 37°C for 72 h, the culture medium was aspirated, and the cells were precipitated by the addition of 10% trichloroacetic acid (Sigma-Aldrich, Missouri, US). After overnight incubation at 4°C, the plates were washed three times with deionized water. The precipitates were then stained with SRB (0.4% wt/v sulforhodamine B solution in 1% acetic acid, Sigma-Aldrich, Missouri, US). Afterwards, the plates were washed six times with 1% acetic acid to remove unbound stain. After drying the plates at room temperature, the bound SRB was solubilized with 10 mM Tris base and the optical density was measured at 520 nm using a Victor2 plate reader (Perkin Elmer, Germany). Blank OD values were subtracted from mean OD values for each concentration. The nonlinear curve ﬁtting and EC50 calculations were per formed using XLﬁt and algorithm “205” (ID Business […]\n(§4) For comparison of EC50 values in Figure 1F, one-way ANOVA with multiple comparison testing (Tukey) was performed. Multiplicity adjusted p -values for the EC50 with sorafenib versus resminostat for each cell line and comparison between cell lines for sorafenib are presented (95% confidence interval for significance testing). For comparison of EC50 data in Figure 2B, one-way ANOVA with multiple comparison testing (Tukey) was performed. Multiplicity adjusted p-values with 95% confidence interval was applied. For the invasion assays in Figure 4, one-way ANOVA with multiple comparison testing (Tukey) was performed. Multiplicity adjusted p-values with 95% confidence interval was applied. The adjusted p-values comparing vehicle control without vs. with platelets and compound"}, "[2]": {"test_system": "RDES", "details": "72 h, bone", "protocol": "as §1, §2, §3, §4"}, "[3]": {"test_system": "MT3", "details": "MT3, breast", "protocol": "as §1, §2, §3, §4"}, "[4]": {"test_system": "SNB75", "details": "SNB75, brain", "protocol": "as §1, §2, §3, §4"}, "[5]": {"test_system": "NCIH292", "details": "NCIH292, lung", "protocol": "as §1, §2, §3, §4"}, "[6]": {"test_system": "NCIH460", "details": "NCIH460, lung", "protocol": "as §1, §2, §3, §4"}, "[7]": {"test_system": "SKBR3", "details": "SKBR3, breast", "protocol": "as §1, §2, §3, §4"}, "[8]": {"test_system": "SAOS2", "details": "SAOS2, bone", "protocol": "as §1, §2, §3, §4"}, "[9]": {"test_system": "NCIH358M", "details": "72 h, lung", "protocol": "as §1, §2, §3, §4"}, "[10]": {"test_system": "COLO678", "details": "Homo sapiens, COLO-678, COLO678, colon, 72 h", "protocol": "as §1, §2, §3, §4"}, "[11]": {"test_system": "UMUC3", "details": "UMUC3, bladder", "protocol": "as §1, §2, §3, §4"}, "[12]": {"test_system": "HS578T", "details": "72 h, breast", "protocol": "as §1, §2, §3, §4"}, "[13]": {"test_system": "EJ28", "details": "EJ28, bladder", "protocol": "as §1, §2, §3, §4"}}, "note": "Where two headings read alike, the source gives them in different places.", "data": [{"smiles": "CN(C)Cc1ccc(S(=O)(=O)n2ccc(/C=C/C(=O)NO)c2)cc1", "note": "[resminostat, Resminostat]", "values": [{"measurement": "EC50", "setting": "[1]; 72 h, read-out: EC50", "result": 2.93, "unit": "µM"}, {"measurement": "EC50", "setting": "[1]; Homo sapiens, Calu-6, 72 h, log of EC50, negative, read-out: log(EC50) (converted)", "result": 2.95, "unit": "µM"}, {"measurement": "EC50", "setting": "[1]; Homo sapiens, Calu-6, 72 h, read-out: EC50", "result": 2.93, "unit": "µM"}, {"measurement": "EC50", "setting": "[2]; RD-ES, log of EC50, negative, read-out: log(EC50) (converted)", "result": 3.55, "unit": "µM"}, {"measurement": "EC50", "setting": "[2]; RD-ES, read-out: EC50", "result": 3.57, "unit": "µM"}, {"measurement": "EC50", "setting": "[2]; read-out: EC50", "result": 3.57, "unit": "µM"}, {"measurement": "EC50", "setting": "[3]; 72 h, read-out: EC50", "result": 1.89, "unit": "µM"}, {"measurement": "EC50", "setting": "[3]; MT-3, 72 h, log of EC50, negative, read-out: log(EC50) (converted)", "result": 1.91, "unit": "µM"}, {"measurement": "EC50", "setting": "[3]; MT-3, 72 h, read-out: EC50", "result": 1.89, "unit": "µM"}, {"measurement": "EC50", "setting": "[4]; Homo sapiens, SNB-75, 72 h, log of EC50, negative, read-out: log(EC50) (converted)", "result": 6.76, "unit": "µM"}, {"measurement": "EC50", "setting": "[4]; Homo sapiens, SNB-75, 72 h, read-out: EC50", "result": 6.75, "unit": "µM"}, {"measurement": "EC50", "setting": "[4]; 72 h, read-out: EC50", "result": 6.75, "unit": "µM"}, {"measurement": "EC50", "setting": "[5]; Homo sapiens, NCI-H292, 72 h, log of EC50, negative, read-out: log(EC50) (converted)", "result": 6.31, "unit": "µM"}, {"measurement": "EC50", "setting": "[5]; Homo sapiens, NCI-H292, 72 h, read-out: EC50", "result": 6.27, "unit": "µM"}, {"measurement": "EC50", "setting": "[5]; 72 h, read-out: EC50", "result": 6.27, "unit": "µM"}, {"measurement": "EC50", "setting": "[6]; Homo sapiens, NCI-H460, 72 h, log of EC50, negative, read-out: log(EC50) (converted)", "result": 2.14, "unit": "µM"}, {"measurement": "EC50", "setting": "[6]; Homo sapiens, NCI-H460, 72 h, read-out: EC50", "result": 2.12, "unit": "µM"}, {"measurement": "EC50", "setting": "[6]; 72 h, read-out: EC50", "result": 2.12, "unit": "µM"}, {"measurement": "EC50", "setting": "[7]; Homo sapiens, SK-BR-3, 72 h, log of EC50, negative, read-out: log(EC50) (converted)", "result": 0.933, "unit": "µM"}, {"measurement": "EC50", "setting": "[7]; Homo sapiens, SK-BR-3, 72 h, read-out: EC50", "result": 0.93, "unit": "µM"}, {"measurement": "EC50", "setting": "[7]; 72 h, read-out: EC50", "result": 0.93, "unit": "µM"}, {"measurement": "EC50", "setting": "[8]; Homo sapiens, SAOS-2, 72 h, log of EC50, negative, read-out: log(EC50) (converted)", "result": 1.91, "unit": "µM"}, {"measurement": "EC50", "setting": "[8]; Homo sapiens, SAOS-2, 72 h, read-out: EC50", "result": 1.89, "unit": "µM"}, {"measurement": "EC50", "setting": "[8]; 72 h, read-out: EC50", "result": 1.89, "unit": "µM"}, {"measurement": "EC50", "setting": "[9]; NCI-H358M, log of EC50, negative, read-out: log(EC50) (converted)", "result": 4.37, "unit": "µM"}, {"measurement": "EC50", "setting": "[9]; NCI-H358M, read-out: EC50", "result": 4.33, "unit": "µM"}, {"measurement": "EC50", "setting": "[9]; read-out: EC50", "result": 4.33, "unit": "µM"}, {"measurement": "EC50", "setting": "[10]; log of EC50, negative, read-out: log(EC50) (converted)", "result": 7.59, "unit": "µM"}, {"measurement": "EC50", "setting": "[10]; read-out: EC50", "result": 7.62, "unit": "µM"}, {"measurement": "EC50", "setting": "[11]; Homo sapiens, UMUC3, 72 h, log of EC50, negative, read-out: log(EC50) (converted)", "result": 3.24, "unit": "µM"}, {"measurement": "EC50", "setting": "[11]; Homo sapiens, UMUC3, 72 h, read-out: EC50", "result": 3.24, "unit": "µM"}, {"measurement": "EC50", "setting": "[11]; 72 h, read-out: EC50", "result": 3.24, "unit": "µM"}, {"measurement": "EC50", "setting": "[12]; Homo sapiens, Hs-578T, log of EC50, negative, read-out: log(EC50) (converted)", "result": 3.98, "unit": "µM"}, {"measurement": "EC50", "setting": "[12]; Homo sapiens, Hs-578T, read-out: EC50", "result": 4.03, "unit": "µM"}, {"measurement": "EC50", "setting": "[12]; read-out: EC50", "result": 4.03, "unit": "µM"}, {"measurement": "EC50", "setting": "[13]; 72 h, read-out: EC50", "result": 4.59, "unit": "µM"}, {"measurement": "EC50", "setting": "[13]; Homo sapiens, EJ-28, 72 h, log of EC50, negative, read-out: log(EC50) (converted)", "result": 4.57, "unit": "µM"}, {"measurement": "EC50", "setting": "[13]; Homo sapiens, EJ-28, 72 h, read-out: EC50", "result": 4.59, "unit": "µM"}]}]}
